Key:
[1] = system: CPS II; assay: CPS II activity in PALA resistant CHO cells; type: cell-based, Chinese hamster; settings: CHO B cell line, selected with 3 mM PALA; FIG. 3
Description: CHO DP12 and CHO DG44 parental cell lines and CHO DP12 expressing TNFR-IgG and anti-CD11a were cultivated with and without P-phosphonacytyl-L-aspartate (PALA). As shown schematically in FIG. 2, each cell line was plated at 10% confluency in 10 cm petri dishes using standard tissue culture techniques. Cells were cultured in serum containing medium having 0.1 mM PALA. The culture medium was changed weekly. Surviving clones were pooled and sub-cultivated in increasing concentrations of PALA until the target PALA concentration was reached, i.e., 2-10 mM PALA. After selection for the PALA phenotype (see below), cells were either passed into a PALA containing medium or to a PALA free medium and further cultivated in suspension spinner flasks. Spinner flask cell populations were sub-cultivated every 4-7 days. Cells selected in the presence of PALA are referred to as PALA-resistant cells, cells cultivated in the same manner as above but not treated with PALA will be referred to as control cells.
CHO cells treated with 3 mM PALA were analyzed for CPS II activity, an indicator of overall CAD activity, using the method generally described in Mori and Tatibana. […] Two PALA resistant CHO sub-cultures were analyzed, CHO-A and CHO-B, to ensure that results were uniform to the PALA resistant phenotype and not particular to a sub-population of treated cells.

[2] = system: CAD mRNA; assay: CAD mRNA expression by RNase protection assay in PALA selected cells; type: cell-based; settings: TRY cells selected under 2 mM PALA; FIG. 4
Description: CAD expression was measured on PALA resistant cells using a RNase protection assay similar to the method described in Mahler and McGuire. Mahler and McGuire (1990), J. Clin. Invest., 86: 1641-1648. In particular, TRY cells were selected under 2 mM PALA and CAD mRNA expression measured using a RNase protection assay.

[3] = system: CHO cells; assay: Intracellular nucleotides and nucleotide sugars (HPLC) in PALA resistant CHO cells; type: cell-based, Chinese hamster; settings: FIG. 6
Description: CHO cells were treated in 5 mM PALA, cell extracts were prepared and nucleotides measured using a method similar to Ryll and Wagner. Ryll and Wagner (1991) J. Chromatography, 570:77-88. The experiment was performed over a time course of 10 to 90 days and data quantified and plotted as UTP content of PALA resistant cells relative to control cells.
Further, PALA resistant CHO DP12 cells expressing TNFR-IgG were seeded at 4×10^6 cells per ml in spinner flask cultures and incubated at 31° C. and 6 mM butyrate for 6 days. The cell culture supernatant was harvested and TNFR-IgG recovered by a method of protein A immunoaffinity chromatography as is well known in the art. N-linked glycans were analyzed by MALDI mass spectrometry using the method generally described by Papac et al., (1996) Anal. Chem., 68:3215-3223. Sialic acid content of the TNFR-IgG was determined using were analyzed using the method generally described by Anumula, (1995) Anal. Biochem., 230, 24-30.

[4] = system: CHO cells; assay: Intracellular UTP and UDP-galactose in CHO cells fed uridine or galactose; type: cell-based, Chinese hamster
Description: CHO cells were incubated under standard tissue culture technique in the presence and absence of 1 to 20 mM uridine for 18 hours and tested for UTP concentrations using a method similar to Ryll and Wagner. Quantified data from the 0, 1, 2, 5, 10 and 20 mM uridine cultures were plotted as a function of normalized intracellular UTP concentrations. Alternatively, CHO Cells were cultured in the presence of 0.2 mM uridine or 11 mM galactose and tested for UTP concentrations using the method of Ryll and Wagner.

[5] = system: CHO cell line that produces aCD20; assay: Galactose content of aCD20 MAb from CHO cells cultured with uridine (capillary electrophoresis); type: cell-based, Chinese hamster; settings: 0.5 to 1.0 mM uridine for 7 days; FIG. 10
Description: A CHO cell line that produces a recombinant glycoprotein, monoclonal antibody (MAb) aCD20, was cultured in the presence and absence of 0.5 to 1.0 mM uridine for a period of 7 days. Secreted aCD20 MAb was purified by immunoaffinity using the method of Ma & Nashabeh. Ma & Mashabeh (1999) Analytical Chemistry 71(22):5185-92. Purified aCD20 was tested for galactose content using the capillary electrophoresis method of Ma & Nashabeh and plotted as a percent galactose content.

[6] = 0.2 mM uridine or 11 mM galactose, FIG. 8

| Compound | increase in CPS II activity as compared to control CHO cells [1] | increase in CAD mRNA as compared to control cells [2] | increase in UTP content as compared to control cells ([3]; CHO cells treated in 5 mM PALA, time course of 10 to 90 days) | increase in UDP-galactose content as compared to control cells ([3]; PALA resistant CHO cells, period of at least 90 days) | intracellular UTP levels [4, 6] | intracellular UDP-galactose levels ([4]; 11 mM galactose, FIG. 8) | intracellular UTP levels ([4]; 1 to 20 mM uridine for 18 hours, FIG. 7) | galactose content of aCD20 MAb versus non-uridine treated control cells [5] |
| --- | --- | --- | --- | --- | --- | --- | --- | --- |
| O=C(O)C[C@H](NC(=O)CP(=O)(O)O)C(=O)O [PALA, N-phosphonacetyl-L-aspartate] | twenty | two | 200-350% | 200-350% |  |  |  |  |
| O=C[C@H](O)[C@@H](O)[C@@H](O)[C@H](O)CO [galactose] |  |  |  |  | does not increase UTP levels | does increase UDP-galactose levels |  |  |
| O=c1ccn([C@@H]2O[C@H](CO)[C@@H](O)[C@H]2O)c(=O)[nH]1 [uridine] |  |  |  |  | dramatic increase in UTP levels |  | increases UTP levels within the cell in a dose dependent manner | much higher galactose content |

Reference: patent US20070111284A1, “Galactosylation of Recombinant Glycoproteins” (Genentech, Inc., priority 2000, published 2007)
